We go through five compounds from patent publication US20050143350A1, “Combination drug therapy to treat obesity” (priority 2003, published 2005).

Data set [1] is described as follows: Patient case records: body weight during co-administration of an anticholinesterase agent and an antidepressant. Type of data set: in vivo, human. Details: Weight / Wt. Chg. / Δ Wt.: unit not given here. As to conditions: for Wt. Chg.: positive = loss. An excerpt: The following examples illustrate exemplified treatment regimens and resultant synergistic effects in achieving long-term stable weight loss by co-administering to an individual an anticholinesterase agent and an antidepressant. Each patient is given an alphanumeric designator.

The subject of a further data set is P450 cytochrome. As to conditions: cited from earlier work.
The conditions of data set [2]: doses over 300 mg a day; cited from earlier work.
For data set [3] the following is noted: in vivo; cited from earlier work.
[4] abbreviates: Patient B3, comments wrap over rows: 'Epigastric discomfort, no vomiting.' (day 70), 'Bowels a little loose' (day 126), 'Vomiting after rivastigmine at supper' (day 175), 'Diethylpropion made them vomit twice.' (day 189).
The mark [5] stands for this setting: patient R2, day 14, baseline 209.3, venlafaxine 75 mg alone, no rivastigmine.
Where [6] appears, read: patient R2, day 35, baseline 209.3, venlafaxine 75 mg alone, no rivastigmine.
Setting [7] is: patient R2, day 111, baseline 209.3, venlafaxine 75 mg alone, no rivastigmine.

Each structure is given as a SMILES string. Entries after “also recorded” stand apart in the source; their conditions may differ.

Take `CCN(CC)C(C)C(=O)c1ccccc1` (stereo not shown) [Diethylpropion, diethylpropion]: the “Comments (side effects)” value in data set [1] (setting [4]) is reported as “vomit”.

On to `CN(C)C(=N)N=C(N)N` [Metformin], for which the “Comments (side effects)” value in data set [1] (Patient B1, comment wraps over rows: 'Sweating and uncomfortable stomach in a.m.' (day 59), 'Metformin causes diarrhea') is listed as “diarrhea”.

Turning to `CCN(C)C(=O)Oc1cccc([C@H](C)N(C)C)c1` [Riva.], the “Comments: adverse effects” value in data set [1] (patient M1, day 153, Tried 12 mg of Riva.) is “Caused vomit-; also recorded: ing, diarrhea,; also recorded: dizzy. B.P”. Also, the “B.P. (Comments)” value in data set [1] (patient M1, day 153, Tried 12 mg of Riva., initial B.P. 140/100) is listed as 88/64.

On to `CCN(C)C(=O)Oc1cccc([C@H](C)N(C)C)c1` [Rivastigmine, rivastigmine], for which the “Comments (side effects)” value in data set [1] (setting [4]) is “Vomiting”. Also, the “metabolism by the P450 cytochrome” value with P450 cytochrome is “not metabolized by the P450 cytochrome”.

Regarding `COc1ccc(C(CN(C)C)C2(O)CCCCC2)cc1` (stereo not shown) [Venlafaxine, venlafaxine], in data set [1] (Patient F1, change from baseline 214.5, positive = weight lost, visit day = Days column (7-512)), the “Δ Wt.” value was 6.0. Also, the Weight in data set [1] (human, in vivo) is 208.5; in data set [1] (setting [5]) it was 207.5; in data set [1] (setting [6]) it was 206.0; in data set [1] (setting [7]), 213.3. For the same compound, the “Wt. Chg.” value is 1.8 in data set [1] (setting [5]), 3.3 in data set [1] (setting [6]) and −4.0 in data set [1] (setting [7]). For the same compound, in data set [2], the “patients with a mild increase in blood pressure” value is on record as 15%. In data set [3], the “absorption, influence of food” value was “not influenced by the presence of food”.
